Experiments:
Assay in all cases: relative viability (nuclei count vs DMSO), 5 days (fraction); higher = more cells survive
[1] = system: NCI-H322M
How it was run: (§1)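 Medians of duplicate plates are given as relative viability. That measure is the nuclei count in treated wells divided by the count in vehicle wells. Counts were taken on 4× images of lung cancer cell lines in 1536-well plates, 5 days after pin-tool dosing the day after seeding with one drug alone or a fixed anchor-drug dose plus five library-drug doses (not always all listed) in √10 steps.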

[2] = system: CAL-12T
How it was run: as §1

[3] = system: NCI-H1734
How it was run: as §1

[4] = system: COR-L23
How it was run: as §1

[5] = system: NCI-H1437
How it was run: as §1

[6] = system: NCI-H2228
How it was run: as §1

[7] = system: ABC-1
How it was run: as §1

[8] = system: EKVX
How it was run: as §1

[9] = system: NCI-H1355
How it was run: as §1

[10] = system: PC-3 [JPC-3]
How it was run: as §1

[11] = system: H3255
How it was run: as §1

[12] = system: RERF-LC-KJ
How it was run: as §1

[13] = system: NCI-H520
How it was run: as §1

[14] = system: LK-2
How it was run: as §1

[15] = system: SW 1573
How it was run: as §1

[16] = system: NCI-H1650
How it was run: as §1

[17] = system: HCC-15
How it was run: as §1

[18] = system: NCI-H1563
How it was run: as §1

[19] = system: NCI-H661
How it was run: as §1

[20] = system: HCC-827
How it was run: as §1

[21] = system: NCI-H2405
How it was run: as §1

[22] = system: PC-14
How it was run: as §1

## C=C1C(=O)O[C@@H](CCCCCCCC)[C@@H]1C(=O)O [C-75] + CS(=O)(=O)N1CCN(Cc2cc3nc(-c4cccc5[nH]ncc45)nc(N4CCOCC4)c3s2)CC1 [Pictilisib] (partner 1 µM)
[1]; first compound 0.08 µM
  relative viability: 0.563
[1]; first compound 0.253 µM
  relative viability: 0.674
[1]; first compound 0.8 µM
  relative viability: 0.514
[1]; first compound 2.53 µM
  relative viability: 0.528
[1]; first compound 8 µM
  relative viability: 0.489
[2]; first compound 0.08 µM
  relative viability: 0.58
[2]; first compound 0.253 µM
  relative viability: 0.624
[2]; first compound 0.8 µM
  relative viability: 0.306
[2]; first compound 2.53 µM
  relative viability: 0.292
[2]; first compound 8 µM
  relative viability: 0.486
[3]; first compound 0.08 µM
  relative viability: 0.435
[3]; first compound 0.253 µM
  relative viability: 0.428
[3]; first compound 0.8 µM
  relative viability: 0.448
[3]; first compound 2.53 µM
  relative viability: 0.384
[3]; first compound 8 µM
  relative viability: 0.367
[4]; first compound 0.08 µM
  relative viability: 0.663
[4]; first compound 0.253 µM
  relative viability: 0.865
[4]; first compound 0.8 µM
  relative viability: 0.78
[4]; first compound 2.53 µM
  relative viability: 0.609
[4]; first compound 8 µM
  relative viability: 0.693
[5]; first compound 0.08 µM
  relative viability: 0.489
[5]; first compound 0.253 µM
  relative viability: 0.402
[5]; first compound 0.8 µM
  relative viability: 0.464
[5]; first compound 2.53 µM
  relative viability: 0.472
[5]; first compound 8 µM
  relative viability: 0.491
[6]; first compound 0.08 µM
  relative viability: 0.429
[6]; first compound 0.253 µM
  relative viability: 0.689
[6]; first compound 0.8 µM
  relative viability: 0.221
[6]; first compound 2.53 µM
  relative viability: 0.202
[6]; first compound 8 µM
  relative viability: 0.324
[7]; first compound 0.08 µM
  relative viability: 0.733
[7]; first compound 0.253 µM
  relative viability: 0.87
[7]; first compound 0.8 µM
  relative viability: 0.659
[7]; first compound 2.53 µM
  relative viability: 0.646
[7]; first compound 8 µM
  relative viability: 0.469
[8]; first compound 0.08 µM
  relative viability: 0.436
[8]; first compound 0.253 µM
  relative viability: 0.448
[8]; first compound 0.8 µM
  relative viability: 0.426
[8]; first compound 2.53 µM
  relative viability: 0.458
[8]; first compound 8 µM
  relative viability: 0.452
[9]; first compound 0.08 µM
  relative viability: 0.477
[9]; first compound 0.253 µM
  relative viability: 0.48
[9]; first compound 0.8 µM
  relative viability: 0.348
[9]; first compound 2.53 µM
  relative viability: 0.507
[9]; first compound 8 µM
  relative viability: 0.465
[10]; first compound 0.08 µM
  relative viability: 0.817
[10]; first compound 0.253 µM
  relative viability: 0.637
[10]; first compound 0.8 µM
  relative viability: 0.674
[10]; first compound 2.53 µM
  relative viability: 0.822
[10]; first compound 8 µM
  relative viability: 0.876
[11]; first compound 0.08 µM
  relative viability: 0.464
[11]; first compound 0.253 µM
  relative viability: 0.572
[11]; first compound 0.8 µM
  relative viability: 0.458
[11]; first compound 2.53 µM
  relative viability: 0.494
[11]; first compound 8 µM
  relative viability: 0.447
[12]; first compound 0.08 µM
  relative viability: 0.564
[12]; first compound 0.253 µM
  relative viability: 0.528
[12]; first compound 0.8 µM
  relative viability: 0.625
[12]; first compound 2.53 µM
  relative viability: 0.537
[12]; first compound 8 µM
  relative viability: 0.533
[13]; first compound 0.08 µM
  relative viability: 0.24
[13]; first compound 0.253 µM
  relative viability: 0.357
[13]; first compound 0.8 µM
  relative viability: 0.309
[13]; first compound 2.53 µM
  relative viability: 0.224
[13]; first compound 8 µM
  relative viability: 0.297
[14]; first compound 0.08 µM
  relative viability: 0.444
[14]; first compound 0.253 µM
  relative viability: 0.662
[14]; first compound 0.8 µM
  relative viability: 0.555
[14]; first compound 2.53 µM
  relative viability: 0.461
[14]; first compound 8 µM
  relative viability: 0.396
[15]; first compound 0.08 µM
  relative viability: 0.555
[15]; first compound 0.253 µM
  relative viability: 0.511
[15]; first compound 0.8 µM
  relative viability: 0.482
[15]; first compound 2.53 µM
  relative viability: 0.346
[15]; first compound 8 µM
  relative viability: 0.365
[16]; first compound 0.08 µM
  relative viability: 0.632
[16]; first compound 0.253 µM
  relative viability: 0.691
[16]; first compound 0.8 µM
  relative viability: 0.521
[16]; first compound 2.53 µM
  relative viability: 0.474
[16]; first compound 8 µM
  relative viability: 0.619
[17]; first compound 0.08 µM
  relative viability: 0.739
[17]; first compound 0.253 µM
  relative viability: 0.761
[17]; first compound 0.8 µM
  relative viability: 0.654
[17]; first compound 2.53 µM
  relative viability: 0.666
[17]; first compound 8 µM
  relative viability: 0.725
[18]; first compound 0.08 µM
  relative viability: 0.606
[18]; first compound 0.253 µM
  relative viability: 0.681
[18]; first compound 0.8 µM
  relative viability: 0.737
[18]; first compound 2.53 µM
  relative viability: 0.673
[18]; first compound 8 µM
  relative viability: 0.63
[19]; first compound 0.08 µM
  relative viability: 0.398
[19]; first compound 0.253 µM
  relative viability: 0.493
[19]; first compound 0.8 µM
  relative viability: 0.355
[19]; first compound 2.53 µM
  relative viability: 0.315
[19]; first compound 8 µM
  relative viability: 0.382
[20]; first compound 0.08 µM
  relative viability: 0.954
[20]; first compound 0.253 µM
  relative viability: 0.95
[20]; first compound 0.8 µM
  relative viability: 1.14
[20]; first compound 2.53 µM
  relative viability: 0.694
[20]; first compound 8 µM
  relative viability: 0.915
[21]; first compound 0.08 µM
  relative viability: 0.471
[21]; first compound 0.253 µM
  relative viability: 0.307
[21]; first compound 0.8 µM
  relative viability: 0.37
[21]; first compound 2.53 µM
  relative viability: 0.408
[21]; first compound 8 µM
  relative viability: 0.391
[22]; first compound 0.08 µM
  relative viability: 0.748
[22]; first compound 0.253 µM
  relative viability: 0.997
[22]; first compound 0.8 µM
  relative viability: 0.668
[22]; first compound 2.53 µM
  relative viability: 0.753
[22]; first compound 8 µM
  relative viability: 0.695
